# Tested on: Bacillus subtilis
# Assay: Antibacterial activity against Bacillus subtilis ATCC 6633 after 24 hrs by microtiter plate assay
# Type: functional
row,SMILES,LD99
1,COC(=O)Cc1cc2c(c(O)c1C(C)=O)C(=O)c1c(O)cccc1C2=O,3 µg/mL
2,CCc1ccc2c(O)c3c(c(O)c2c1)C(=O)c1cccc(O)c1C3=O,13 µg/mL
3,CCCCC(=O)c1c(CC(=O)OC)cc2c(c1O)C(=O)c1c(O)cccc1C2=O [BLANCHAQUINONE],6 µg/mL
4,CC[C@@]1(O)C[C@H](O)c2c(O)c3c(c(O)c2[C@H]1C(=O)OC)C(=O)c1cccc(O)c1C3=O,0.8 µg/mL
5,COC(=O)[C@@H]1c2c(O)c3c(c(O)c2[C@@H](O)C[C@]1(O)CC(C)=O)C(=O)c1c(O)cccc1C3=O,13 µg/mL
6,COC(=O)[C@@H]1c2c(O)c3c(c(O)c2[C@@H](O)C[C@@]1(C)O)C(=O)c1c(O)cccc1C3=O,6 µg/mL

# — ChEMBL document CHEMBL1148926, “Blanchaquinone: a new anthraquinone from an Australian Streptomyces sp” (2004)
